Measurements from patent US4937243A, “Thiol carboxylic acid derivatives and their use as colagenase inhibitors” (Beecham Group p.l.c., priority 1986, dated 1990).

Molecular target: T1, purified rabbit bone collagenase (Oryctolagus cuniculus, UniProt P13943)
T1 construct: from tissue; host or cells: rabbit bone
T1 sequence (P13943 99-468): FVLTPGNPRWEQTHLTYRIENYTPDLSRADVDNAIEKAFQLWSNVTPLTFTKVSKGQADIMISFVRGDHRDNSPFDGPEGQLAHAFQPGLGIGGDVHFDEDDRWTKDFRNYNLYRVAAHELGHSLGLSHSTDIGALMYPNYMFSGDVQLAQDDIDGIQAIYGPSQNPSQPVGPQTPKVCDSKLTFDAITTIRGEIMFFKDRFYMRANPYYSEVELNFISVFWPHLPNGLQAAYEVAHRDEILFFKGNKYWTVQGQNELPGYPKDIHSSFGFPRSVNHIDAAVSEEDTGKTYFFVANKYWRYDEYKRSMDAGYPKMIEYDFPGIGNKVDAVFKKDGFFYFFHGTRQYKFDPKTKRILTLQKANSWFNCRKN
Assay: Collagenase inhibitor assay (14C-acetylated rat skin Type I collagen as substrate)
Type: biochemical
Details: 5-15 min preincubation at 37° C., 37° C. overnight, read-out: IC50 (amount of compound which inhibits a known amount of enzyme by 50%)
Experimental: The test is performed essentially as in Cawston and Barrett Anal. Biochem. 99, 340-345 (1979). Compounds for testing are dissolved in methanol and added to purified rabbit bone collagenase in buffer. After a 5-15 min incubation at 37° C., the assay tubes are cooled to 4° C. and ^14 C-acetylated rat skin Type I collagen is added. The assay tubes are incubated at 37° C. overnight. The ^14 C-collagen forms insoluble fibrils which are the substrate for the enzyme.
To terminate the assay, the assay tubes are spun at 12000 rpm for 15 min. Undigested ^14 C-collagen is pelleted, digested ^14 C-collagen is found as soluble peptides in the supernatant. A sample of the supernatant is taken for liquid scintillation counting.

SMILES | IC50
CNC(=O)[C@H](Cc1ccc(OC)cc1)NC(=O)C(CC(C)C)C(S)CC(=O)OCc1ccccc1 (single isomer, unassigned) [4 C] | 0.23 µM
CNC(=O)[C@H](Cc1ccc(OC)cc1)NC(=O)C(CC(C)C)C(S)CC(=O)OCc1ccccc1 (single isomer, unassigned) [4 D] | 12.6 µM
CNC(=O)[C@H](Cc1ccc(OC)cc1)NC(=O)C(CC(C)C)C(S)CC(=O)OC (single isomer, unassigned) [2 A] | 0.0039 to 0.0064 µM
CNC(=O)[C@H](Cc1ccc(OC)cc1)NC(=O)C(CC(C)C)C(S)CC(=O)OCc1ccccc1 (single isomer, unassigned) [4 B] | 0.27 µM
CNC(=O)[C@H](Cc1ccc(OC)cc1)NC(=O)C(CC(C)C)C(S)CC(=O)OCc1ccccc1 (single isomer, unassigned) [4 A] | 0.031 µM
CNC(=O)[C@H](Cc1ccc(OC)cc1)NC(=O)C(CC(C)C)C(S)CC(=O)OC (mixture of isomers) [2 mixture of diastereoisomers] | 0.1 µM
CNC(=O)CC(S)C(CC(C)C)C(=O)N[C@@H](Cc1ccc(OC)cc1)C(=O)NC (single isomer, unassigned) [8 A] | 0.0047 to 0.014 µM
CNC(=O)[C@H](Cc1ccccc1)NC(=O)C(CC(C)C)C(S)CC(=O)OC (single isomer, unassigned) [10 A] | 0.0083 µM
CNC(=O)[C@H](Cc1ccc(OC)cc1)NC(=O)C(CC(C)C)C(S)CC(=O)OC (single isomer, unassigned) [2 B] | 0.072 µM
